Experimental data as given in patent US7368582B2, “Amidomethyl-substituted 2-(4-sulfonylamino)-3-hydroxy-3,4-dihydro-2H-chromen-6-yl compounds, a process and intermediates for their production, and pharmaceutical compositions containing them” (Solvay Pharmaceuticals GmbH, priority 2003, dated 2008).

How the values were obtained:
Kv 1.5-potassium channel = target: T1, Kv 1.5-potassium channel (Homo sapiens, UniProt P22460); assay: In-vitro Kv 1.5-potassium channel-blocking effect (Rb+ outflow from CHO cells, atomic absorption spectroscopy); assay type: cell-based; details: CHO cells stably expressing Kv 1.5, read-out: IC50 (Kv1.5-potassium channel-blocking effect, concentration of half-maximum inhibition)
T1 construct: expressed in transfected cells
Procedure: 1. In-Vitro Investigation of the Kv 1.5-Potassium Channel-Blocking Effect of the Substances
In this test model, a cell line of egg cells of the Chinese hamster (=“Chinese hamster oocytes”, “CHO”) is used which originates from a single cell and stably expresses the Kv 1.5-channel. By incubation overnight in a nutrient medium containing RbCl or a “loading buffer” (all values in mM: RbCl 5, NaCl 140, CaCl2 2, MgSO4 1, HEPES buffer 10, glucose 5) the aforementioned oocytes are loaded with Rb^+ under the influence of Na^+/K^+-ATPase. Thereafter, a portion of the oocytes is incubated as a reference standard in the absence of an inhibitor, while another portion of the oocytes is incubated in the presence of the respective inhibitory test substance of Formula I. Then the oocytes are depolarized by increasing the extracellular potassium-ion concentration, which causes the Kv 1.5-potassium channels of the oocytes to open. In the absence of an inhibitor, the Rb^+ ions flow through the Kv 1.5-potassium channels into the liquid surrounding them. In the presence of an inhibitory test substance of Formula I, on the other hand, the Rb^+ ions remain locked within the oocytes. The extent of the Kv 1.5-potassium channel-blocking effect of the test substances of Formula I is determined by measuring the Rb^+ ion concentration in the liquid surrounding them by means of atomic absorption spectroscopy against a reference standard.
Chinese hamster oocytes (see above) were cultivated in a known, RbCl-containing nutrient medium for CHO-cells and placed in the sample wells of a 96-sample capacity sample plate (“96 well plate”). The oocytes were allowed to grow overnight in order to obtain monolayers of the oocytes. Then the nutrient medium was pipetted off, and each sample well was washed three times with 100 μl portions of a preincubation buffer of low potassium-ion concentration (all values in mM: KCl 5, NaCl 140, CaCl2 2, MgSO4 1, HEPES buffer 10, glucose 5). Then 50 μl of a solution of the respective test substance (stock solution in DMSO, dilution with preincubation buffer, final concentration in the test batch 10 μM) or of the solvent (as negative controls) was added to each sample well and incubated for 10 min. in each case at room temperature. Then 50 μl of a stimulation buffer with elevated potassium-ion concentration (KCl 145 mM, NaCl 0 mM, otherwise as preincubation buffer) was added to each sample well and the samples were then incubated for a further 10 min. at room temperature. In each case, 80 μl of the liquid surrounding the oocytes from each sample well was then transferred separately to the sample wells of an analysis sample plate, and the Rb^+ ion concentration in the liquids was determined by atomic absorption spectroscopy. The test substances were each double-tested. The signal section which represented the Kv 1.5 component of the Rb^+ outflow was defined by using as positive control the known potassium channel blocker 4-AP in a high concentration (100×IC50 for the Kv 1.5 channel). This made it possible to determine which portion of the Rb^+ outflow was dependent on the influence of the 4-AP and therefore is to be assigned to the Kv 1.5 channel. For the substances which in the concentration of 10 μM used led to a reduction in the Rb^+ outflow of at least 50%, additional tests were performed with lower concentrations of the test substances in order to be able to determine the half-maximum effective concentration. In each case the concentration of half-maximum inhibition of the test substances of Formula I (IC50) was given as characteristic variable.

Kv 1.3-potassium channel = target: T2, Kv 1.3-potassium channel (Homo sapiens, UniProt P22001); assay: In-vitro Kv 1.3-potassium channel-blocking effect (membrane potential-sensitive fluorescent dye in transfected CHO cells); assay type: cell-based; details: 10 μM test substance; CHO cells transfected with Kv 1.3; relative to reference margatoxin
T2 construct: expressed in transfected cells; host or cells: CHO cells, stably transfected with the Kv 1.3 plasmid using DMRIE-C
From the text: 2. In-Vitro Investigation of the Kv 1.3-Potassium Channel-Blocking Effect of the Substances
In this test model, known oocytes of the Chinese hamster (═CHO) are used which are stably transfected with the Kv 1.3-potassium channel. The blockade of the cell-inherent Kv 1.3-potassium channel activity in the transfected cells is accompanied by a positive shift in the membrane potential from approx. −40 mV to −30 mV, whereas in the wild-type CHO cells investigated in parallel no significant shift in the membrane potential is triggered. A change in the membrane potential is thus connected to the reduction in the Kv 1.3-potassium channel activity. By blocking the Kv 1.3-potassium channels e.g. with substances of Formula I and the resulting change in the membrane potential, an accumulation of a membrane potential-sensitive fluorescent dye in intracellular compartments of the oocytes and ultimately increasing fluorescence occurs. The change in the membrane potential of the oocytes is therefore measured indirectly via the increase in fluorescence of the membrane potential-senstive dyes.
The cells were transfected with the Kv 1.3 plasmid in known manner with a commercially obtainable transfection reagent (DMRIE-C from Gibco BRL, Germany). The successful transfection was verified by immunofluorescence and by “patch-clamp” investigations of the potassium ion current. The fluorescence measurements were performed on a Tecan Safire fluorescence reader from Tecan, Germany. In each case, the increase in the fluorescent intensity caused by the blockade of the Kv 1.3-potassium channels in the oocytes with substances of Formula I in a concentration of 10 μM was determined as characteristic variable. The increase in the fluorescent intensity was given in each case in percent (%) compared with an increase in the fluorescent intensity caused by the reference substance margatoxin. Margatoxin is known as a selective Kv 1.3-potassium channel blocker (see e.g. M. Garcia-Calvo et al., J. Biol. Chem. 268 (1993) 18866-18874).

[1] = test system: left atrium of rats' hearts; assay: Functional refractory period prolongation on isolated left atria of rats' hearts in vitro; design: species or system rat (Sprague-Dawley); details: 10 μM
Procedure: 3. Investigation of the Functional Effectiveness of the Substances on the Atrium of Rats' Hearts in Vitro
In this test model it is determined to what extent the Kv 1.5-blocking substances of Formula I result in a prolongation of the functional refractory period in the left atrium of rats. The refractory period is the minimum possible elapsed time between the basic stimulus and additional stimulus in which a renewed contraction can be triggered. The extent of the prolongation of the functional refractory period is a measurement of the antiarrhythmic effectiveness of the substances according to the invention. The functional refractory period is determined by testing on the electrically stimulated preparation at what elapsed time from the preceding contraction a renewed contraction can be triggered by additional electrical stimuli.
The hearts were removed from freshly sacrificed rats (Sprague-Dawley, Charles-River, Germany). The left atria were isolated and fastened to force transducers in a temperature-controlled (30° C.), gasified (O2 95%, CO2 5%) organ bath which was filled with modified Tyrode solution (all values in mM: NaCl 137; KCl 2.7; CaCl2 1.8; MgCl2 0.8; NaHCO3 11.9; NaH2PO4 0.6; glucose 5). In order to trigger regular contractions, the preparations were electrically stimulated (rectangular pulses, pulse magnitude 3.5× threshold stimulus, pulse width 1.5 ms, frequency 1 Hz). Initially, the initial value of the functional refractory period was determined by applying extra pulses in addition to the basic stimulus, the elapsed time from the preceding basic stimulus being shortened until no further additional contraction could be triggered. Then the cumulative addition of increasing concentrations (0.1-10 μM) of the substances of Formula I took place at intervals of 20 min. each, the refractory period being determined again in each case 18 min. after the addition had taken place. Before the measurement, stock solutions of the test substances (3.2 and 0.32 mM in 100% DMSO) were prepared. In order to achieve the desired final concentrations of the substances (0.1-10 μM) in the organ bath (volume 100 ml), corresponding volumes of these stock solutions were then poured into the organ bath.
In each case the prolongation of the functional refractory period (FRP) in the left atrium of the rats' hearts in milliseconds observed after the addition of 10 μM of the respective substance of Formula I to the atrial preparations was given as characteristic variable.

T1 sequence (P22460 whole entry): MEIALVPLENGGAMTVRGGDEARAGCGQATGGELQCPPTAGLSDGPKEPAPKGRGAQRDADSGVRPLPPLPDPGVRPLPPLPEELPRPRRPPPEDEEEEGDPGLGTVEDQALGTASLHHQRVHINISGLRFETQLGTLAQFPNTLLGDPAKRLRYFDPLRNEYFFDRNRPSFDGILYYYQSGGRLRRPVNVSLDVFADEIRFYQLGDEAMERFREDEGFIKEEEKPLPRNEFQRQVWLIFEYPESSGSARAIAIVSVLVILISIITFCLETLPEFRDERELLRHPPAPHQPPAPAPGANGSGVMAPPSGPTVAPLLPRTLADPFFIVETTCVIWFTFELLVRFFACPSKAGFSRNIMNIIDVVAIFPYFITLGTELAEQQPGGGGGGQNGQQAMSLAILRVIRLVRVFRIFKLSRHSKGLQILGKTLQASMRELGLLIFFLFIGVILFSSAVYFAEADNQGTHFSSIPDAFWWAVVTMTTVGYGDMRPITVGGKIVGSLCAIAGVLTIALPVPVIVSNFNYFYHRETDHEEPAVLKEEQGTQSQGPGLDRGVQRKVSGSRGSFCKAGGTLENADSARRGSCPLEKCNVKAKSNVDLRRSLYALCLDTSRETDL
T2 sequence (P22001 whole entry): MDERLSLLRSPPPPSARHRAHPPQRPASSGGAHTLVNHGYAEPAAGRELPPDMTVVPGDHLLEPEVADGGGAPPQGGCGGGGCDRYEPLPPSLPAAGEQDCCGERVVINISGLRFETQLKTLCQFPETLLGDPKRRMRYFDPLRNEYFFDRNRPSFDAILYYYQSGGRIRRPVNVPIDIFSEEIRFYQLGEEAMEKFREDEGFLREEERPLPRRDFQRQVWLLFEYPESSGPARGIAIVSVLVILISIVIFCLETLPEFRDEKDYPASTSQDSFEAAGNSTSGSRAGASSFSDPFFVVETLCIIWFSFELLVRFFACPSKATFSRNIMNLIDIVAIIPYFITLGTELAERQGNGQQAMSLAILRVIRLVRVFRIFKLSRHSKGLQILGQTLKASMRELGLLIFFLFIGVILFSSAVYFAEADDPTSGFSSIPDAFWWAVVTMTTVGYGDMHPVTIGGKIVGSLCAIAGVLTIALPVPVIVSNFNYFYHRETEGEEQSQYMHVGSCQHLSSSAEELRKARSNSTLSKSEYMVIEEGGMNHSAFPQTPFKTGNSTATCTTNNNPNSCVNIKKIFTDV

| Compound | IC50 (Kv 1.5-potassium channel) | Increase in the fluorescent intensity (% margatoxin) (Kv 1.3-potassium channel) | FRP prolongation [1] |
| --- | --- | --- | --- |
| CCCNC(=O)Cc1ccc2c(c1)C(N(CC(C)C)S(=O)(=O)c1ccc(F)c(Cl)c1)C(O)C(C)(C)O2 (stereo not shown) [Example 24] | 5 µM |  |  |
| Cc1ccc(S(=O)(=O)N(CC2CC2)C2c3cc(CC(=O)NCc4ccccc4)ccc3OC(C)(C)C2O)cc1 (stereo not shown) [Example 18] | 2.7 µM | 141 % margatoxin |  |
| Cc1cccc(S(=O)(=O)NC2c3cc(CC(=O)NCc4ccc(Cl)cc4)ccc3OC(C)(C)C2O)c1 (stereo not shown) [Example 5, N-(4-chlorobenzyl)-2-(3-hydroxy-2,2-dimethyl-4-{[(3-methylphenyl)sulfonyl]amino}-3,4-dihydro-2H-chromen-6-yl)acetamide] | 5 µM | 82 % margatoxin |  |
| CCCNC(=O)Cc1ccc2c(c1)C(N(CCC(C)C)S(=O)(=O)c1ccc(-c3ccccc3)cc1)C(O)C(C)(C)O2 (stereo not shown) [Example 26] | 5.2 µM |  |  |
| Cc1ccc(S(=O)(=O)N(CCC(C)C)C2c3cc(CC(=O)NCc4ccccc4)ccc3OC(C)(C)C2O)cc1 (stereo not shown) [Example 19] | 2.5 µM | 171 % margatoxin |  |
| CC(C)CCN(C1c2cc(CC(=O)NCc3ccccc3)ccc2OC(C)(C)C1O)S(=O)(=O)c1ccc(C(F)(F)F)cc1 (stereo not shown) [Example 23] | 4.3 µM | 41 % margatoxin |  |
| CCCCNC(=O)Cc1ccc2c(c1)C(NS(=O)(=O)c1ccc(I)cc1)C(O)C(C)(C)O2 (stereo not shown) [Example 17] | 2.65 µM | 72 % margatoxin |  |
| Cc1ccc(S(=O)(=O)NC2c3cc(CC(=O)NC4CCCc5ccccc54)ccc3OC(C)(C)C2O)cc1 (mixture of isomers) [Example 15] | 4 µM |  | 30 ms |
| CCCCCN(C1c2cc(CC(=O)NC(C)C(C)C)ccc2OC(C)(C)C1O)S(=O)(=O)c1cccc(OC)c1 (stereo not shown) [Example 22] | 3.4 µM | 71 % margatoxin |  |
| CCCCNC(=O)Cc1ccc2c(c1)C(N(CC(CC)CC)S(=O)(=O)c1cc(OC)ccc1OC)C(O)C(C)(C)O2 (stereo not shown) [Example 6] | 2.9 µM | 97 % margatoxin |  |
| COc1cccc(S(=O)(=O)N(CCC(C)C)C2c3cc(CC(=O)NCc4ccc(Cl)cc4)ccc3OC(C)(C)C2O)c1 (stereo not shown) [Example 27] | 5.6 µM |  |  |
| CCC(CC)CN(C1c2cc(CC(=O)NCc3ccco3)ccc2OC(C)(C)C1O)S(=O)(=O)c1cc(OC)ccc1OC (stereo not shown) [Example 21] | 3.3 µM | 86 % margatoxin |  |
| CC(C)CCN(C1c2cc(CC(=O)NCc3ccccc3)ccc2OC(C)(C)C1O)S(=O)(=O)c1ccc2ccccc2c1 (stereo not shown) [Example 25] | 5.2 µM |  |  |
